Experiments:
Settings in all cases: Compound concentration 1000.0 nM
[1] = biological target: Cyclin-dependent kinase 11A (Homo sapiens) (UniProt Q9UQ88)
[2] = biological target: Ribosomal protein S6 kinase alpha-3 (Homo sapiens, UniProt P51812)
[3] = biological target: Ribosomal protein S6 kinase alpha-4 (Homo sapiens) (UniProt O75676)
[4] = biological target: Serine/threonine-protein kinase PLK4 (Homo sapiens) (UniProt O00444)
[5] = biological target: SRSF protein kinase 2 (Homo sapiens) (UniProt P78362)
[6] = biological target: TRAF2 and NCK-interacting protein kinase (Homo sapiens) (UniProt Q9UKE5)
[7] = biological target: Serine/threonine-protein kinase SBK1 (Homo sapiens) (UniProt Q52WX2)
[8] = biological target: Mitogen-activated protein kinase kinase kinase 11 (Homo sapiens) (UniProt Q16584)
[9] = biological target: Tyrosine-protein kinase Fyn (Homo sapiens) (UniProt P06241)
[10] = biological target: T1, Dual specificity tyrosine-phosphorylation-regulated kinase 2 (Homo sapiens) (UniProt Q92630)
T1 sequence (whole entry): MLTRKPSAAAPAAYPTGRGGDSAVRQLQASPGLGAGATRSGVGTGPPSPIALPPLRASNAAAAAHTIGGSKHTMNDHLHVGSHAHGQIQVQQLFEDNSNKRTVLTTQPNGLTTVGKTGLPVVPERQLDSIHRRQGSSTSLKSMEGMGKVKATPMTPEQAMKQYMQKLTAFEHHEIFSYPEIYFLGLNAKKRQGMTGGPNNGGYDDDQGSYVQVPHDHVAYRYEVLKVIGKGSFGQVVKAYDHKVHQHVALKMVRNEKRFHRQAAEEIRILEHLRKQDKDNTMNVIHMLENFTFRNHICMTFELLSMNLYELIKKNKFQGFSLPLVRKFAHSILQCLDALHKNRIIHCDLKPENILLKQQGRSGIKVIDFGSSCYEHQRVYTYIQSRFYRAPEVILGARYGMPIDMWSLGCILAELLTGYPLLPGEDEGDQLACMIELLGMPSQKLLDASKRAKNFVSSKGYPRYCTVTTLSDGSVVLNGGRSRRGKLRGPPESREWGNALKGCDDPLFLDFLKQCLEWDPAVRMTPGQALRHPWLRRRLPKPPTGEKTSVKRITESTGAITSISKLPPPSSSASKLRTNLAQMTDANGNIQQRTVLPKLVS

[11] = biological target: T2, Inhibitor of nuclear factor kappa-B kinase subunit epsilon (Homo sapiens) (UniProt Q14164)
T2 sequence (whole entry): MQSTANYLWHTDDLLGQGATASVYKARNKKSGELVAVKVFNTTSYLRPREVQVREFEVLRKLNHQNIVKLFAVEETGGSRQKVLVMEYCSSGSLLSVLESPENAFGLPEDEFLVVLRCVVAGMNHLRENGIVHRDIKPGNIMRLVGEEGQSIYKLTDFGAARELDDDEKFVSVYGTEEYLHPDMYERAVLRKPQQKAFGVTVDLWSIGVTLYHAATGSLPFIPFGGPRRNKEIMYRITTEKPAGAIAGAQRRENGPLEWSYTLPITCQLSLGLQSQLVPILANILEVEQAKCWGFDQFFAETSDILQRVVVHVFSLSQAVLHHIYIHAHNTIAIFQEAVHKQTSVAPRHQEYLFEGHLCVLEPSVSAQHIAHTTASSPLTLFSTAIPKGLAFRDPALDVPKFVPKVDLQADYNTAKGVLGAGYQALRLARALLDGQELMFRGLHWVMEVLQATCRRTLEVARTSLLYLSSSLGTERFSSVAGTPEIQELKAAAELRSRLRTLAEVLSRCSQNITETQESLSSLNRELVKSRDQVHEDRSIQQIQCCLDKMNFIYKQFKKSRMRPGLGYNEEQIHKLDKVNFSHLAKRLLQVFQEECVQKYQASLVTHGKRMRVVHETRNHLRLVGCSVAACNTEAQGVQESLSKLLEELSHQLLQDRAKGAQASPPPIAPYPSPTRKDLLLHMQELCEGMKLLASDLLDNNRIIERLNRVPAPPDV

[12] = biological target: T3, Serine/threonine-protein kinase tousled-like 1 (Homo sapiens) (UniProt Q9UKI8)
T3 sequence (whole entry): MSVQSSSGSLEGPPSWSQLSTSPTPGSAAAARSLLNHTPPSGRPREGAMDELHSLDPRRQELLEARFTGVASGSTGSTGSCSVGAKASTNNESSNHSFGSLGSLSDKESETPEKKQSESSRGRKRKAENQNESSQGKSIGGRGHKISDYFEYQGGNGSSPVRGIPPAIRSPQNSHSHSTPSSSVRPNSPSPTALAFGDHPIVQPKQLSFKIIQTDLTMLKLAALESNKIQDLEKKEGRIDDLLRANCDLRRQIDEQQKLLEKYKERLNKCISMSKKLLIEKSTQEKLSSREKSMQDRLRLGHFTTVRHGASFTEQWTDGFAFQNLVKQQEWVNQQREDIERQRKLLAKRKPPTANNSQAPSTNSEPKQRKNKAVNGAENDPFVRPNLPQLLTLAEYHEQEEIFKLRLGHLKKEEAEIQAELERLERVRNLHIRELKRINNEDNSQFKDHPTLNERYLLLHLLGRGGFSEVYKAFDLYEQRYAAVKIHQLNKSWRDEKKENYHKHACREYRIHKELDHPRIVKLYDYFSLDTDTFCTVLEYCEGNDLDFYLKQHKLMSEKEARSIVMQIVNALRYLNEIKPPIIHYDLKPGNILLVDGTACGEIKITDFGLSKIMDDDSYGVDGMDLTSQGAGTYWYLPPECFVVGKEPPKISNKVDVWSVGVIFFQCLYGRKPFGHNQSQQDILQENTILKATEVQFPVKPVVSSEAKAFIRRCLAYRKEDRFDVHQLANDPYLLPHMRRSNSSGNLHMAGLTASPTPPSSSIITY

Measured: residual activity

Chain of Serine/threonine-protein kinase SBK1 (Homo sapiens) (Q52WX2 whole entry): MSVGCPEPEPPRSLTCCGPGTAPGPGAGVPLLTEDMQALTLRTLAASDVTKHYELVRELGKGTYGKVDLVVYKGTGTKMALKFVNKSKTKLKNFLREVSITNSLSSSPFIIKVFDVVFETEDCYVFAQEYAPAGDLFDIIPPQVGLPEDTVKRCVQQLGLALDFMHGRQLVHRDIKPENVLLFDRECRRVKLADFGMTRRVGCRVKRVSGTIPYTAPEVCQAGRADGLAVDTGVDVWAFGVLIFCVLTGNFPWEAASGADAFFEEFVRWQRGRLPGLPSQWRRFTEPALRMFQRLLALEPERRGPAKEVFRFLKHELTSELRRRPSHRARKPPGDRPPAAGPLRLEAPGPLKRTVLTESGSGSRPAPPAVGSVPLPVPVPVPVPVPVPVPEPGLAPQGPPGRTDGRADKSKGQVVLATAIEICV
Chain of Tyrosine-protein kinase Fyn (Homo sapiens) (P06241 2-537 limits assumed): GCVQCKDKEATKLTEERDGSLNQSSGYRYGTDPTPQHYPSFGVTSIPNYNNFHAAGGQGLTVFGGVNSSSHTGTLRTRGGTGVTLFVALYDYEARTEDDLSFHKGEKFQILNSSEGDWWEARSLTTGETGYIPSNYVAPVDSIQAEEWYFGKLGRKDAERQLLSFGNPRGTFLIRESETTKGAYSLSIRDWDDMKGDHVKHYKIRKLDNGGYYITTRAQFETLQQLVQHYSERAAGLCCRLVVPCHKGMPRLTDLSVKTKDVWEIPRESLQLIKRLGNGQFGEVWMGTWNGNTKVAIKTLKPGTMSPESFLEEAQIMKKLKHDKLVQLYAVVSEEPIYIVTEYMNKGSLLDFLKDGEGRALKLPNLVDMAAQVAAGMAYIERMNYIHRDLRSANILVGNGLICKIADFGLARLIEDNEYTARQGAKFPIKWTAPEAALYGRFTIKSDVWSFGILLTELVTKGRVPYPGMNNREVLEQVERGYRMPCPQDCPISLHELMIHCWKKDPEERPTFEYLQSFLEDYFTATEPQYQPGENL
Chain of Mitogen-activated protein kinase kinase kinase 11 (Homo sapiens) (Q16584 whole entry, looked up): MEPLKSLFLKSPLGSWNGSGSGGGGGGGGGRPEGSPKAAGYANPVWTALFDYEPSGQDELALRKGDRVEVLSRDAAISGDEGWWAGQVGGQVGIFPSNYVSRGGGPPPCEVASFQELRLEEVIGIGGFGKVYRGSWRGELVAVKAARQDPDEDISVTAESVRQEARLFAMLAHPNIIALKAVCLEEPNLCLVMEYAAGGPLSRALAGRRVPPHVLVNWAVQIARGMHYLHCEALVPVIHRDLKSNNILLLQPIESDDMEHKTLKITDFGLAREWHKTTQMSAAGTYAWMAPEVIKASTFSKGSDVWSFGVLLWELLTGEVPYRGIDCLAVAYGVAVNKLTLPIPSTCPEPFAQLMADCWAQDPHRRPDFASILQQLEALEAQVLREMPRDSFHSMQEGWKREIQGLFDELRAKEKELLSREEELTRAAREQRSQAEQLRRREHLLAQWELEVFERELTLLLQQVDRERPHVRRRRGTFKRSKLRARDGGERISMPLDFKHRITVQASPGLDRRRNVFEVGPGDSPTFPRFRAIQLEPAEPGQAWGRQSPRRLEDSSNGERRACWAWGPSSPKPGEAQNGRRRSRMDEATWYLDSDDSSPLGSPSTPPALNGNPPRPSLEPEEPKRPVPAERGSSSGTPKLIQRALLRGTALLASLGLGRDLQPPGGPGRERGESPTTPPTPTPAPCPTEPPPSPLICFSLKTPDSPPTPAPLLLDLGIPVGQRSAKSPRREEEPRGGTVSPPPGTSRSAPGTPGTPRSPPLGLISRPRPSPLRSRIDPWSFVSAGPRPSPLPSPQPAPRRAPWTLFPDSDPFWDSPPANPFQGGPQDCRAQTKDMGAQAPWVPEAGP
Chain of Ribosomal protein S6 kinase alpha-3 (P51812 whole entry): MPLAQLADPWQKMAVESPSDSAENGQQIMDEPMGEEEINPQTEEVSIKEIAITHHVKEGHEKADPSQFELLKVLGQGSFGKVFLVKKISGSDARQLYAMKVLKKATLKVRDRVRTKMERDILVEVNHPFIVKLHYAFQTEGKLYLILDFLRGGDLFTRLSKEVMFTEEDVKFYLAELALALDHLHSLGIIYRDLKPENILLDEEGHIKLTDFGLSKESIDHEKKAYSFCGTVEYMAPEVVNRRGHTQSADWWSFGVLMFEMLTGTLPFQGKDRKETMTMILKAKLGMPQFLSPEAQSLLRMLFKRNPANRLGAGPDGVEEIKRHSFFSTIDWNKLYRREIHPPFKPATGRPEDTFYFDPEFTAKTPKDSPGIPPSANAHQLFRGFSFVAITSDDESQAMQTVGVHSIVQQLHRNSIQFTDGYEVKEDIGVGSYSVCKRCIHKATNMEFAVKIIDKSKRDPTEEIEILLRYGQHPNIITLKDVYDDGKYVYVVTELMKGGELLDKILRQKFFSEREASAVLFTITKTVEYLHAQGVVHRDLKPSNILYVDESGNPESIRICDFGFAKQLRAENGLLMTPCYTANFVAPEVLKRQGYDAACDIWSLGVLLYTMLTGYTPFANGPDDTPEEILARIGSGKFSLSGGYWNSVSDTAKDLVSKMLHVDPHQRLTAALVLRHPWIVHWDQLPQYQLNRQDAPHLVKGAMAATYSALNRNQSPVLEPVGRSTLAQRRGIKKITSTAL
Chain of Serine/threonine-protein kinase PLK4 (Homo sapiens) (O00444 whole entry): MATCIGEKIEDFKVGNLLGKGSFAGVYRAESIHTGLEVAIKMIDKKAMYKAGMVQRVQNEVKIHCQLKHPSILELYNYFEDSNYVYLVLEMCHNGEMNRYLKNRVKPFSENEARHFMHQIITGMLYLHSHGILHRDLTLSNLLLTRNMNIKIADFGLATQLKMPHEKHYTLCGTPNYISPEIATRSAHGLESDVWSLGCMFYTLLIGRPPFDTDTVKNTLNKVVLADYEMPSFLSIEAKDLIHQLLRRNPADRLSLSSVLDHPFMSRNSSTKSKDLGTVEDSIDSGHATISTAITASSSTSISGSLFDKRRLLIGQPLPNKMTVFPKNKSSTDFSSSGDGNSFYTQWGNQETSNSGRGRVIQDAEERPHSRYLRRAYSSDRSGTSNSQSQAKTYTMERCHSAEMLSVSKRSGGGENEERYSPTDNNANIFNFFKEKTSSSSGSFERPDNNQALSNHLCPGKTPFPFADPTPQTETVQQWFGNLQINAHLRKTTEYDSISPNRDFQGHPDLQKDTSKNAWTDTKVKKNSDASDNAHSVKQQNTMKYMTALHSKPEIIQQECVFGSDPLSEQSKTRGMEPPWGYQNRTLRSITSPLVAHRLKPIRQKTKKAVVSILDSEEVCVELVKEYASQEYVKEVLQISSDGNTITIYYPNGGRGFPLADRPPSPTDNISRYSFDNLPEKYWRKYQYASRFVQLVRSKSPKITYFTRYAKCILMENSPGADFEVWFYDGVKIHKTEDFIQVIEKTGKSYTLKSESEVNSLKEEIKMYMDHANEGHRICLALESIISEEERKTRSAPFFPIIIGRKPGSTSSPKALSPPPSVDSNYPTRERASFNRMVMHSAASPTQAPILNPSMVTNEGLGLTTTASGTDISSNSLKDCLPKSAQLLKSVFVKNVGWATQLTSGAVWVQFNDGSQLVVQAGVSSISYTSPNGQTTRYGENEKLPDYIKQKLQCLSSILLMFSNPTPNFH
Chain of SRSF protein kinase 2 (Homo sapiens) (P78362 whole entry, looked up): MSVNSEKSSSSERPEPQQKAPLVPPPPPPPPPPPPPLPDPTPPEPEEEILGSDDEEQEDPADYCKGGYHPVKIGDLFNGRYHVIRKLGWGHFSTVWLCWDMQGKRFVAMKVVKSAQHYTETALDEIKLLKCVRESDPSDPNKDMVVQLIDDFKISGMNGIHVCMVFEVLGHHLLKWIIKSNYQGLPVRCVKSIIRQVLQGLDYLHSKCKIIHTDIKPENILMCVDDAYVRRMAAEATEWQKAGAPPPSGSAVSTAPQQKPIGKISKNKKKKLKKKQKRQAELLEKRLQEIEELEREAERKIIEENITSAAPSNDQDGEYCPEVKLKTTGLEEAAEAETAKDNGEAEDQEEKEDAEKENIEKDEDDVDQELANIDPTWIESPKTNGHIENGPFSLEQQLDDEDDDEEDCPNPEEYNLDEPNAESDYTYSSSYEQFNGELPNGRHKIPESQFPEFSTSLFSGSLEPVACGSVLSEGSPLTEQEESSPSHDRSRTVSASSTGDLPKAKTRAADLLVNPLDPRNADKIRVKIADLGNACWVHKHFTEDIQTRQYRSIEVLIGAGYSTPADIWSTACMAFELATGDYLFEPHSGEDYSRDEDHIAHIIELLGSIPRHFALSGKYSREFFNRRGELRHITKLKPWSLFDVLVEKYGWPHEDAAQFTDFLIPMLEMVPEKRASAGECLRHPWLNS
Chain of Ribosomal protein S6 kinase alpha-4 (Homo sapiens) (O75676 whole entry, looked up): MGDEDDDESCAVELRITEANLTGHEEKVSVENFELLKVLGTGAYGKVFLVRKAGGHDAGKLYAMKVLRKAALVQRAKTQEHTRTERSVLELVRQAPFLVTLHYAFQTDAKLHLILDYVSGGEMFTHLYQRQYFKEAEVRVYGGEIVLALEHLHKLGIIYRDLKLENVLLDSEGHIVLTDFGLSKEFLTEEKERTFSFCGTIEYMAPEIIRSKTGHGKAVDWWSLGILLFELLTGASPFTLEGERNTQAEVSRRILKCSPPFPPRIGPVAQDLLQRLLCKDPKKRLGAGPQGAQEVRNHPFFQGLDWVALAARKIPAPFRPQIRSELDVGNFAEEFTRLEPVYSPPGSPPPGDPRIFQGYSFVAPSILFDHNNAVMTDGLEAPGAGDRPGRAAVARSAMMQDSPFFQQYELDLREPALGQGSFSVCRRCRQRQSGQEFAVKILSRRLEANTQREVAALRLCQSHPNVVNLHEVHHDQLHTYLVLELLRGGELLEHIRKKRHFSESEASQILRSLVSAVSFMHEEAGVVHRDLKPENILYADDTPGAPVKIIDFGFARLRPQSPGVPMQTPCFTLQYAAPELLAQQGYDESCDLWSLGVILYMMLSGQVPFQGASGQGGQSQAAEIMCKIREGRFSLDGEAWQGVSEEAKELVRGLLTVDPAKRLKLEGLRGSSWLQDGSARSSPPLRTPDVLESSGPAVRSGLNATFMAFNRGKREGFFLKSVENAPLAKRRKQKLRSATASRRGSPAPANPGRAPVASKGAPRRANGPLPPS

CCc1ccccc1C(=O)Nc1n[nH]c2c(C)c(F)c(C3C(C#N)=C(C)N(C)C(C)=C3C#N)cc12 [BAY-3827]
inactive: [1] 86% | [2] 100% | [3] 100% | [4] 100% | [5] 100% | [6] 78% | [7] 100% | [8] 88% | [9] 100% | [10] 82% | [11] 68% | [12] 100%

CC1=C(C#N)C(c2ccc3c(c2)c(NC(=O)c2ccccc2C)nn3C)C(C#N)=C(C)N1 [BAY-974]
inactive: [1] 100% | [2] 94% | [3] 89% | [4] 100% | [5] 88% | [6] 98% | [7] 98% | [8] 96% | [9] 100% | [10] 100% | [11] 100% | [12] 88%
